Source: the NIST ThermoML archive (doi:10.1016/j.jct.2017.05.020)

Key:
[1] = wn = mass fraction of the nth substance listed; conditions: 100 kPa, Liquid, Vibrating tube method
[2] = refractive index (Na D-line) (dimensionless); wn = mass fraction of the nth substance listed; conditions: 100 kPa, Liquid, Standard Abbe refractometry
[3] = refractive index (Na D-line) (dimensionless); conditions: 100 kPa, Liquid, Standard Abbe refractometry
[4] = 100 kPa, Liquid, Vibrating tube method

C=CC[P+](c1ccccc1)(c1ccccc1)c1ccccc1.[Br-] [allyltriphenylphosphonium bromide] + OCCOCCO
Conditions	mass density, w1 = 0.1842 [kg/m3]	mass density, w1 = 0.2653 [kg/m3]	mass density, w1 = 0.4745 [kg/m3]	refractive index, w1 = 0.1842	refractive index, w1 = 0.2653	refractive index, w1 = 0.4745
[1], 293.15 K	1146.3	1159.9	1201.1	–	–	–
[1], 298.15 K	1142.7	1156.3	1197.5	–	–	–
[1], 303.15 K	1139.1	1152.6	1193.8	–	–	–
[1], 308.15 K	1135.5	1149	1190.1	–	–	–
[1], 313.15 K	1131.9	1145.3	1186.4	–	–	–
[1], 318.15 K	1128.2	1141.7	1182.7	–	–	–
[1], 323.15 K	1124.6	1138	1179	–	–	–
[1], 328.15 K	1121	1134.4	1175.4	–	–	–
[1], 333.15 K	1117.3	1130.7	1171.7	–	–	–
[1], 338.15 K	1113.6	1127	1167.9	–	–	–
[1], 343.15 K	1109.9	1123.3	1164.2	–	–	–
[2], 293.15 K	–	–	–	1.4817	1.4955	1.5446
[2], 298.15 K	–	–	–	1.4801	1.4938	1.543
[2], 303.15 K	–	–	–	1.4784	1.4921	1.5413
[2], 308.15 K	–	–	–	1.4768	1.4904	1.5396
[2], 313.15 K	–	–	–	1.4752	1.4887	1.538
[2], 318.15 K	–	–	–	1.4735	1.487	1.5363
[2], 323.15 K	–	–	–	1.4718	1.4853	1.5346
[2], 328.15 K	–	–	–	1.4701	1.4836	1.5329
[2], 333.15 K	–	–	–	1.4684	1.4819	1.5313
[2], 338.15 K	–	–	–	1.4668	1.4802	1.5296
[2], 343.15 K	–	–	–	1.4651	1.4785	1.5279

OCCOCCOCCO [triethylene glycol] + C=CC[P+](c1ccccc1)(c1ccccc1)c1ccccc1.[Br-]
w2 = 0
Conditions	mass density, [1] [kg/m3]	refractive index, [2]
293.15 K	1124.6	1.4576
298.15 K	1120.8	1.4558
303.15 K	1116.9	1.4541
308.15 K	1113	1.4523
313.15 K	1109.1	1.4505
318.15 K	1105.2	1.4488
323.15 K	1101.3	1.4469
328.15 K	1097.4	1.445
333.15 K	1093.5	1.4434
338.15 K	1089.6	1.4417
343.15 K	1085.6	1.4399

OCCOCCO [diethylene glycol]
Conditions	mass density, [4] [kg/m3]	refractive index, [3]
293.15 K	1116.5	1.4477
298.15 K	1113	1.4461
303.15 K	1109.4	1.4446
308.15 K	1105.8	1.443
313.15 K	1102.2	1.4415
318.15 K	1098.6	1.44
323.15 K	1095	1.4384
328.15 K	1091.4	1.4368
333.15 K	1087.7	1.4351
338.15 K	1084	1.4334
343.15 K	1080.3	1.4317
